Drawing on patent US12581252B2, “Substituted pyrrolo[3,4-b]pyridines as PI3K-α inhibitors” (Relay Therapeutics, Inc., priority 2020, dated 2026), this text covers IC50 for 42 compounds.

The target of the assay is H1047R PIK3CA enzyme (Homo sapiens, UniProt P42336, H1047R). The experiment in a line: ADP-Glo Biochemical PIK3CA Kinase Assay. On the technique in general: In ADP-Glo the light output rises with the ADP produced.
Chain of H1047R PIK3CA enzyme (P42336 whole entry H1047R): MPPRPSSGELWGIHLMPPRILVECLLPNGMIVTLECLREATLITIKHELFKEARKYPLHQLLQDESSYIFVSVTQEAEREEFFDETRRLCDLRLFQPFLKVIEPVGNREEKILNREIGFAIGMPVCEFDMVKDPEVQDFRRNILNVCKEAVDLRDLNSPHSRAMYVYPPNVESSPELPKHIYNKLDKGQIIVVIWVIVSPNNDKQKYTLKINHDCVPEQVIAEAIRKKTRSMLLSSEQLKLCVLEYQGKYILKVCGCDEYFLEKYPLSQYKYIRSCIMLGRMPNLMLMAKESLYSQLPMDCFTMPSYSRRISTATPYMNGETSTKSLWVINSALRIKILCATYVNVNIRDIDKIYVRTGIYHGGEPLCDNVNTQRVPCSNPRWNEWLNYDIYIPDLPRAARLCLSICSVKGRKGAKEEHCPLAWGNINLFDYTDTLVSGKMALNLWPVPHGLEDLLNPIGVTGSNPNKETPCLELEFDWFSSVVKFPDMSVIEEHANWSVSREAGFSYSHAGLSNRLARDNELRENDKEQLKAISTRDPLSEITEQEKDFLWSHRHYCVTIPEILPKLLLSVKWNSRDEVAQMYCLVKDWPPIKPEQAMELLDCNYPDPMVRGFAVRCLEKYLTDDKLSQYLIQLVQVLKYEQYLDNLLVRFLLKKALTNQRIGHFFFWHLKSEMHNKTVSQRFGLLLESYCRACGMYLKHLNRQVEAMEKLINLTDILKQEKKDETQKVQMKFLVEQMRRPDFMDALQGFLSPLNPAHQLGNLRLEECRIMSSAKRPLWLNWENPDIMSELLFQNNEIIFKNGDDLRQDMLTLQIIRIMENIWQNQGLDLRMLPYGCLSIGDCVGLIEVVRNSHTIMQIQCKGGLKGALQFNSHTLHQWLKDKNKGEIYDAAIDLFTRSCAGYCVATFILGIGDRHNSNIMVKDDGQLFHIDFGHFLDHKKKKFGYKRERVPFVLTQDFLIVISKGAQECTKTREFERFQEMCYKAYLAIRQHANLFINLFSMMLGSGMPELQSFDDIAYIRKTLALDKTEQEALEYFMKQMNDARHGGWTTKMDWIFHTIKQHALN
Chain of H1047R PIK3CA enzyme (P27986 whole entry partner): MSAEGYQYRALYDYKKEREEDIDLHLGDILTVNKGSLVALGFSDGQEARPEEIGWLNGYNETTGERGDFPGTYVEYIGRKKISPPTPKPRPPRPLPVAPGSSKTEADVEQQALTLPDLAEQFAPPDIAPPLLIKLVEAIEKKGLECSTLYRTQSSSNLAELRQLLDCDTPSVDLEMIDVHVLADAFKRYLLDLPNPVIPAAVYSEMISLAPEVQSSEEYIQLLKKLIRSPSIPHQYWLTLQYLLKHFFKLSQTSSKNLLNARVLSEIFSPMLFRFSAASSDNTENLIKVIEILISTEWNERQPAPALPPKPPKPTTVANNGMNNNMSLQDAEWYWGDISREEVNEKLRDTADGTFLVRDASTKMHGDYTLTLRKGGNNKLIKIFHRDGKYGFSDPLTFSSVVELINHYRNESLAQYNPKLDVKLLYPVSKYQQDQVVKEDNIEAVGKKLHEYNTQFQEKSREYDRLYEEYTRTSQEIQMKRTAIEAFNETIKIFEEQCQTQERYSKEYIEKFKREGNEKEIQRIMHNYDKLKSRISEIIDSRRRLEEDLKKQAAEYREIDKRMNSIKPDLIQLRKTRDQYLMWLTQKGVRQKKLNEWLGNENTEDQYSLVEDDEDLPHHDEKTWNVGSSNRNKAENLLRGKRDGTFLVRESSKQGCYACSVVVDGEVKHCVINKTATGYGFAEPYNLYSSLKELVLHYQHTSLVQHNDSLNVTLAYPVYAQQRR
One may read the IC50 as the point on the concentration scale where inhibition reaches its midpoint. Lower therefore signals inhibition by little substance. Turning to `Cc1cc2ncnn2cc1-c1cc(NC(=O)c2cc(F)cc(C(F)(F)F)c2)c2c(c1)C(=O)N[C@@H]2c1cc(F)ccc1Cl` [Compound I-1873], the IC50 lay in the range of 1 to 10 µM. Turning to `Cc1cc2ncnn2cc1-c1cc(NC(=O)c2cc(F)cc(C(F)(F)F)c2)c2c(c1)C(=O)N[C@H]2c1cc(F)ccc1Cl` [Compound I-1874], the IC50 was ≤ 0.1 µM. `Cc1c(-c2cc(NC(=O)c3cc(F)cc(C(F)(F)F)c3)c3c(c2)C(=O)N[C@@H]3c2cc(F)ccc2Cl)ccc2ncnn12` [Compound I-1875]: the IC50 fell in the range of 1 to 10 µM.

As to `Cc1c(-c2cc(NC(=O)c3cc(F)cc(C(F)(F)F)c3)c3c(c2)C(=O)N[C@H]3c2cc(F)ccc2Cl)ccc2ncnn12` [Compound I-1876], the half-inhibitory concentration (IC50) is ≤ 0.1 µM. The compound `O=C(Nc1cc(-c2cn3c(F)cnc3cn2)cc2c1[C@@H](c1cc(F)ccc1Cl)NC2=O)c1cc(F)cc(C(F)(F)F)c1` [Compound I-1877] yielded a 50% inhibitory concentration (IC50) of 1 to 10 µM. For `O=C(Nc1cc(-c2cn3c(F)cnc3cn2)cc2c1[C@H](c1cc(F)ccc1Cl)NC2=O)c1cc(F)cc(C(F)(F)F)c1` [Compound I-1878], the IC50 was ≤ 0.1 µM.

`Cn1nc(C(F)F)cc1-c1cc(NC(=O)c2cc(F)cc(C(F)(F)F)c2)c2c(c1)C(=O)N[C@@H]2c1cc(F)ccc1Cl` [Compound I-1879] had an IC50 of 1 to 10 µM. Next, `N#Cc1cc(-c2cc(NC(=O)c3cc(F)cc(C(F)(F)F)c3)c3c(c2)C(=O)N[C@@H]3c2cc(F)ccc2Cl)cn2ncnc12` [Compound I-1880]: 0.5 to 1 µM. `Cn1nc(C(F)F)cc1-c1cc(NC(=O)c2cc(F)cc(C(F)(F)F)c2)c2c(c1)C(=O)N[C@H]2c1cc(F)ccc1Cl` [Compound I-1881]: the half-maximal inhibitory concentration (IC50) was ≤ 0.1 µM. For `N#Cc1cc(-c2cc(NC(=O)c3cc(F)cc(C(F)(F)F)c3)c3c(c2)C(=O)N[C@H]3c2cc(F)ccc2Cl)cn2ncnc12` [Compound I-1882], the IC50 is ≤ 0.1 µM. `N#Cc1cnc2cc(F)c(-c3cc(NC(=O)c4cc(F)cc(C(F)(F)F)c4)c4c(c3)C(=O)N[C@@H]4c3cc(F)ccc3Cl)cn12` [Compound I-1883] gave an IC50 of 1 to 10 µM. With `N#Cc1cnc2cc(F)c(-c3cc(NC(=O)c4cc(F)cc(C(F)(F)F)c4)c4c(c3)C(=O)N[C@H]4c3cc(F)ccc3Cl)cn12` [Compound I-1884], the IC50 is ≤ 0.1 µM. `N#CC1(n2cc(-c3cc(NC(=O)c4cc(F)cc(C(F)(F)F)c4)c4c(c3)C(=O)N[C@@H]4c3cc(F)ccc3Cl)cn2)CC1` [Compound I-1885] displayed an IC50 of 0.5 to 1 µM.

Take `N#CC1(n2cc(-c3cc(NC(=O)c4cc(F)cc(C(F)(F)F)c4)c4c(c3)C(=O)N[C@H]4c3cc(F)ccc3Cl)cn2)CC1` [Compound I-1886]: the IC50 was ≤ 0.1 µM. Consider `N#CCOc1cc(NC(=O)c2cc(F)cc(C(F)(F)F)c2)c2c(c1)C(=O)N[C@@H]2c1cc(F)ccc1Cl` [Compound I-1887], for which the half-inhibitory concentration (IC50) lay within 0.5 to 1 µM. As for `N#CCOc1cc(NC(=O)c2cc(F)cc(C(F)(F)F)c2)c2c(c1)C(=O)N[C@H]2c1cc(F)ccc1Cl` [Compound I-1888], the figure is ≤ 0.1 µM. As to `N#Cc1nn(C(F)F)cc1-c1cc(NC(=O)c2cc(F)cc(C(F)(F)F)c2)c2c(c1)C(=O)N[C@@H]2c1cc(F)ccc1Cl` [Compound I-1889], the IC50 fell in the range of 1 to 10 µM. Regarding `N#Cc1nn(C(F)F)cc1-c1cc(NC(=O)c2cc(F)cc(C(F)(F)F)c2)c2c(c1)C(=O)N[C@H]2c1cc(F)ccc1Cl` [Compound I-1890], the IC50 was ≤ 0.1 µM. For the compound `O=C1NC(c2cc(F)ccc2Cl)c2c(O)cc(-c3ccc4ncnn4c3)cc21` (stereo not drawn) [Compound I-1891], the half-inhibitory concentration (IC50) lay within 1 to 10 µM. As for `CSc1cc(-c2ccc3ncnn3c2)cc2c1C(c1cc(F)ccc1Cl)NC2=O` (stereo not drawn) [Compound I-1892], the figure is 10 to 100 µM. As for `O=C1NC(c2cc(F)ccc2Cl)c2c(Nc3c[nH]c4ccccc34)cc(Br)cc21` (stereo not drawn) [Compound I-1896], the 50% inhibitory concentration (IC50) was in the range of 10 to 100 µM. As for `O=C(Nc1ccccc1)c1cc(-c2ccc3ncnn3c2)cc2c1C(c1cc(F)ccc1Cl)NC2=O` (stereo not drawn) [Compound I-1897], the figure is 10 to 100 µM; as for `CS(=O)(=O)Nc1cc(-c2ccc3ncnn3c2)cc2c1C(c1cc(F)ccc1Cl)NC2=O` (stereo not drawn) [Compound I-1898], 1 to 10 µM. `N#CC1(C(=O)Nc2cc(-c3ccc4ncnn4c3)cc3c2C(c2cc(F)ccc2Cl)NC3=O)CCCC1` (stereo not drawn) [Compound I-1899] had an IC50 of 10 to 100 µM. Next, `O=C1NC(c2cc(F)ccc2Cl)c2c(NC(=O)C3CNCCO3)cc(-c3ccc4ncnn4c3)cc21` (stereo not drawn) [Compound I-1900]: 10 to 100 µM. In turn, `O=C1NC(c2cc(F)ccc2Cl)c2c(NC(=O)N3CCC(C(F)(F)F)C3)cc(-c3ccc4ncnn4c3)cc21` (stereo not drawn) [Compound I-1903] came in with an IC50 of 1 to 10 µM. As for `O=C1NC(c2cc(F)ccc2Cl)c2c(NC(=O)N3CCC(O)(C(F)(F)F)C3)cc(-c3ccc4ncnn4c3)cc21` (stereo not drawn) [Compound I-1904], the figure is 10 to 100 µM. Compound `CC(O)c1cc(-c2ccc3ncnn3c2)cc2c1C(c1cc(F)ccc1Cl)NC2=O` (stereo not drawn) [Compound I-1907] had an IC50 of 10 to 100 µM.

`O=C1NC(c2cc(F)ccc2Cl)c2c1cc(-c1ccc3ncnn3c1)cc2N1CCNCC1` (stereo not drawn) [Compound I-1908]: the IC50 fell in the range of 10 to 100 µM.

The compound `CC(=O)N1CC(C2NC(=O)c3cccc(NC(=O)c4cc(F)cc(C(F)(F)F)c4)c32)C1` (stereo not drawn) [Compound I-1909] gave a 50% inhibitory concentration (IC50) of 10 to 100 µM.

For the compound `O=C1NC(c2cc(F)ccc2Cl)c2c(NC(=O)C3COCCO3)cc(-c3ccc4ncnn4c3)cc21` (stereo not drawn) [Compound I-1910], the half-inhibitory concentration (IC50) was 10 to 100 µM. `O=C1NC(c2cc(F)ccc2Cl)c2c1cc(-c1ccc3ncnn3c1)cc2N1CCOCC1` (stereo not drawn) [Compound I-1911] came in with a concentration for half-maximal inhibition (IC50) of 10 to 100 µM. Next, `O=C(CC1CCC(O)CC1)Nc1cc(-c2ccc3ncnn3c2)cc2c1C(c1cc(F)ccc1Cl)NC2=O` (stereo not drawn) [Compound I-1913]: 10 to 100 µM; `O=C1NC(c2cc(F)ccc2Cl)c2c(CC(=O)N3CCc4ccccc43)cc(-c3ccc4ncnn4c3)cc21` (stereo not drawn) [Compound I-1914]: 10 to 100 µM. In turn, `CC1(C2NC(=O)c3cccc(NC(=O)c4cc(F)cc(C(F)(F)F)c4)c32)CCCCC1` (stereo not drawn) [Compound I-1917] returned an IC50 of 10 to 100 µM.

`O=C(Nc1cc(-c2cn(C(F)F)cn2)cc2c1[C@@H](c1cc(F)ccc1Cl)NC2=O)c1cc(F)cc(C(F)(F)F)c1` [Compound I-1918]: the concentration for half-maximal inhibition (IC50) fell in the range of 1 to 10 µM. Next, `O=C(Nc1cc(-c2cn(C(F)F)cn2)cc2c1[C@H](c1cc(F)ccc1Cl)NC2=O)c1cc(F)cc(C(F)(F)F)c1` [Compound I-1919]: ≤ 0.1 µM; `N#Cc1c(-c2cc(NC(=O)c3cc(F)cc(C(F)(F)F)c3)c3c(c2)C(=O)N[C@@H]3c2cc(F)ccc2Cl)cnn1C(F)F` [Compound I-1920]: 1 to 10 µM; `N#Cc1c(-c2cc(NC(=O)c3cc(F)cc(C(F)(F)F)c3)c3c(c2)C(=O)N[C@H]3c2cc(F)ccc2Cl)cnn1C(F)F` [Compound I-1921]: ≤ 0.1 µM. `N#Cc1cnc2cnc(-c3cc(NC(=O)c4cc(F)cc(C(F)(F)F)c4)c4c(c3)C(=O)N[C@@H]4c3cc(F)ccc3Cl)cn12` [Compound I-1922] showed a half-inhibitory concentration (IC50) of 1 to 10 µM. Consider `N#Cc1cnc2cnc(-c3cc(NC(=O)c4cc(F)cc(C(F)(F)F)c4)c4c(c3)C(=O)N[C@H]4c3cc(F)ccc3Cl)cn12` [Compound I-1923], for which the IC50 is ≤ 0.1 µM. Next, `O=C(Nc1cc(-c2ccc3nnc(C(F)F)n3c2)cc2c1[C@@H](c1cc(F)ccc1Cl)NC2=O)c1cc(F)cc(C(F)(F)F)c1` [Compound I-1924]: 1 to 10 µM.
